Experimental data from ChEMBL document CHEMBL1201862, “PubChem BioAssay data set” (2004).
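In this assay, cells in 96-well plates receive the compound at five concentrations for 48 hours. Endpoints are linearly interpolated between the surrounding concentrations. GI50: concentration for 50% inhibition of growth.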 The source made the active and inactive calls. Rule as the data show it: active = GI50 up to about 1.1 µM and inactive = higher.

How the values were obtained:
Assay in all cases: inhibition of tumour cell growth, NCI panel, 48 h
EKVX = tested on: EKVX
U-251 = tested on: U-251
SF-295 = tested on: SF-295
M14 = tested on: M14
A549 = tested on: A549
SN12C = tested on: SN12C
SNB-75 = tested on: SNB-75
KM12 = tested on: KM12
OVCAR-5 = tested on: OVCAR-5
UO-31 = tested on: UO-31
DMS-273 = tested on: DMS-273
COLO 205 = tested on: COLO 205
HCT-15 = tested on: HCT-15
RPMI-8226 = tested on: RPMI-8226
NCI-H522 = tested on: NCI-H522
HOP-62 = tested on: HOP-62
SNB-19 = tested on: SNB-19
HCT-116 = tested on: HCT-116
Malme-3M = tested on: Malme-3M
SF-539 = tested on: SF-539
DLD-1 = tested on: DLD-1
IGROV-1 = tested on: IGROV-1
786-0 = tested on: 786-0
DMS-114 = tested on: DMS-114
XF498 = tested on: XF498
CCRF-CEM = tested on: CCRF-CEM
NCI-H23 = tested on: NCI-H23
OVCAR-3 = tested on: OVCAR-3
HOP-92 = tested on: HOP-92
SNB-78 = tested on: SNB-78
NCI-H460 = tested on: NCI-H460
MOLT-4 = tested on: MOLT-4
ACHN = tested on: ACHN
TK-10 = tested on: TK-10
LXFL 529 = tested on: LXFL 529
K562 = tested on: K562
HCC 2998 = tested on: HCC 2998
HOP-18 = tested on: HOP-18
SF-268 = tested on: SF-268
M19-MEL = tested on: M19-MEL
OVCAR-4 = tested on: OVCAR-4
HT-29 = tested on: HT-29
SK-MEL-5 = tested on: SK-MEL-5
UACC-257 = tested on: UACC-257
SK-MEL-2 = tested on: SK-MEL-2
SK-OV-3 = tested on: SK-OV-3
NCI-H226 = tested on: NCI-H226
OVCAR-8 = tested on: OVCAR-8
HL-60 = tested on: HL-60
SK-MEL-28 = tested on: SK-MEL-28
KM-20L2 = tested on: KM-20L2
UACC-62 = tested on: UACC-62
SW-620 = tested on: SW-620
LOX IMVI = tested on: LOX IMVI
A498 = tested on: A498
SR = tested on: SR
RXF 393 = tested on: RXF 393

SMILES: COc1ccc(N2C(=O)c3c(c4[nH]c5ccc(OC)cc5c4c4ccc(C(C)(C)C)cc34)C2=O)cc1
- GI50 (EKVX): > 100 µM (inactive)
- GI50 (U-251): > 100 µM (inactive)
- GI50 (SF-295): > 100 µM (inactive)
- GI50 (M14): > 100 µM (inactive)
- GI50 (A549): > 100 µM (inactive)
- GI50 (SN12C): > 100 µM (inactive)
- GI50 (SNB-75): > 100 µM (inactive)
- GI50 (KM12): > 100 µM (inactive)
- GI50 (OVCAR-5): > 100 µM (inactive)
- GI50 (UO-31): > 100 µM (inactive)
- GI50 (DMS-273): > 100 µM (inactive)
- GI50 (COLO 205): > 100 µM (inactive)
- GI50 (HCT-15): > 100 µM
- GI50 (RPMI-8226): > 100 µM (inactive)
- GI50 (NCI-H522): > 100 µM (inactive)
- GI50 (HOP-62): > 100 µM (inactive)
- GI50 (SNB-19): > 100 µM (inactive)
- GI50 (HCT-116): > 100 µM (inactive)
- GI50 (Malme-3M): > 100 µM (inactive)
- GI50 (SF-539): > 100 µM (inactive)
- GI50 (DLD-1): > 100 µM (inactive)
- GI50 (IGROV-1): > 100 µM (inactive)
- GI50 (786-0): > 100 µM (inactive)
- GI50 (DMS-114): > 100 µM (inactive)
- GI50 (XF498): > 100 µM (inactive)
- GI50 (CCRF-CEM): > 100 µM (inactive)
- GI50 (NCI-H23): > 100 µM (inactive)
- GI50 (OVCAR-3): > 100 µM (inactive)
- GI50 (HOP-92): > 100 µM (inactive)
- GI50 (SNB-78): > 100 µM (inactive)
- GI50 (NCI-H460): > 100 µM (inactive)
- GI50 (MOLT-4): > 100 µM (inactive)
- GI50 (ACHN): > 100 µM (inactive)
- GI50 (TK-10): > 100 µM (inactive)
- GI50 (LXFL 529): > 100 µM (inactive)
- GI50 (K562): > 100 µM (inactive)
- GI50 (HCC 2998): > 100 µM (inactive)
- GI50 (HOP-18): > 100 µM (inactive)
- GI50 (SF-268): > 100 µM (inactive)
- GI50 (M19-MEL): > 100 µM (inactive)
- GI50 (OVCAR-4): > 100 µM (inactive)
- GI50 (HT-29): > 100 µM (inactive)
- GI50 (SK-MEL-5): > 100 µM (inactive)
- GI50 (UACC-257): > 100 µM (inactive)
- GI50 (SK-MEL-2): > 100 µM (inactive)
- GI50 (SK-OV-3): > 100 µM (inactive)
- GI50 (NCI-H226): > 100 µM (inactive)
- GI50 (OVCAR-8): 92.7 µM (inactive)
- GI50 (HL-60): 53.2 µM (inactive)
- GI50 (SK-MEL-28): > 100 µM (inactive)

SMILES: CC(C)C(Sc1nc(-c2ccccc2)c(-c2ccccc2)[nH]1)C(=O)NNC(=S)Nc1ccccc1 (stereo not given)
- GI50 (EKVX): 23.8 µM (inactive)
- GI50 (KM-20L2): 18.4 µM (inactive)
- GI50 (U-251): 15 µM (inactive)
- GI50 (UACC-62): 0.857 µM (active)
- GI50 (SF-295): 16 µM (inactive)
- GI50 (M14): 16.9 µM (inactive)
- GI50 (A549): 25.5 µM (inactive)
- GI50 (SN12C): 17.5 µM (inactive)
- GI50 (SNB-75): 19.5 µM (inactive)
- GI50 (KM12): 14.7 µM (inactive)
- GI50 (OVCAR-5): 16.7 µM (inactive)
- GI50 (UO-31): 17.8 µM (inactive)
- GI50 (DMS-273): 17.7 µM (inactive)
- GI50 (COLO 205): 18.5 µM (inactive)
- GI50 (HCT-15): 17.9 µM
- GI50 (RPMI-8226): 10.9 µM (inactive)
- GI50 (NCI-H522): 8.67 µM (inactive)
- GI50 (SW-620): 15.3 µM (inactive)
- GI50 (HOP-62): 24.1 µM (inactive)
- GI50 (LOX IMVI): 15.9 µM (inactive)
- GI50 (SNB-19): 41.9 µM (inactive)
- GI50 (HCT-116): 22.9 µM (inactive)
- GI50 (Malme-3M): 16.7 µM (inactive)
- GI50 (SF-539): 21.4 µM (inactive)
- GI50 (DLD-1): 25.8 µM (inactive)
- GI50 (IGROV-1): 18.4 µM (inactive)
- GI50 (786-0): 18.2 µM (inactive)
- GI50 (XF498): 18.4 µM (inactive)
- GI50 (A498): 26 µM (inactive)
- GI50 (CCRF-CEM): 11.6 µM (inactive)
- GI50 (NCI-H23): 14.8 µM (inactive)
- GI50 (OVCAR-3): 13.1 µM (inactive)
- GI50 (HOP-92): 15.2 µM (inactive)
- GI50 (SNB-78): 25 µM (inactive)
- GI50 (NCI-H460): 17.1 µM (inactive)
- GI50 (MOLT-4): 12.1 µM (inactive)
- GI50 (ACHN): 25.1 µM (inactive)
- GI50 (TK-10): 29.3 µM (inactive)
- GI50 (LXFL 529): 15.5 µM (inactive)
- GI50 (HCC 2998): 0.0421 µM (active)
- GI50 (SF-268): 24.5 µM (inactive)
- GI50 (M19-MEL): 18.9 µM (inactive)
- GI50 (OVCAR-4): 22.5 µM (inactive)
- GI50 (HT-29): 17.7 µM (inactive)
- GI50 (SK-MEL-5): 12.8 µM (inactive)
- GI50 (UACC-257): 16.9 µM (inactive)
- GI50 (SK-MEL-2): 19.2 µM (inactive)
- GI50 (SK-OV-3): 21.5 µM (inactive)
- GI50 (NCI-H226): 16.7 µM (inactive)
- GI50 (OVCAR-8): 21.5 µM (inactive)
- GI50 (HL-60): 20.4 µM (inactive)
- GI50 (SK-MEL-28): 22.7 µM (inactive)
- GI50 (SR): 5.61 µM (inactive)

SMILES: O=C1c2ccccc2S[C@@H](O)[C@@H]2CCCN12
- GI50 (EKVX): > 100 µM (inactive)
- GI50 (KM-20L2): > 100 µM (inactive)
- GI50 (RXF 393): > 100 µM (inactive)
- GI50 (U-251): > 100 µM (inactive)
- GI50 (UACC-62): 47.9 µM (inactive)
- GI50 (SF-295): > 100 µM (inactive)
- GI50 (M14): > 100 µM (inactive)
- GI50 (A549): > 100 µM (inactive)
- GI50 (SN12C): > 100 µM (inactive)
- GI50 (KM12): > 100 µM (inactive)
- GI50 (OVCAR-5): > 100 µM (inactive)
- GI50 (UO-31): > 100 µM (inactive)
- GI50 (DMS-273): > 100 µM (inactive)
- GI50 (COLO 205): > 100 µM (inactive)
- GI50 (HCT-15): > 100 µM
- GI50 (RPMI-8226): > 100 µM (inactive)
- GI50 (NCI-H522): > 100 µM (inactive)
- GI50 (SW-620): > 100 µM (inactive)
- GI50 (HOP-62): > 100 µM (inactive)
- GI50 (LOX IMVI): > 100 µM (inactive)
- GI50 (SNB-19): > 100 µM (inactive)
- GI50 (HCT-116): > 100 µM (inactive)
- GI50 (Malme-3M): > 100 µM (inactive)
- GI50 (SF-539): > 100 µM (inactive)
- GI50 (DLD-1): > 100 µM (inactive)
- GI50 (IGROV-1): 21.9 µM (inactive)
- GI50 (786-0): > 100 µM (inactive)
- GI50 (DMS-114): > 100 µM (inactive)
- GI50 (XF498): 39.6 µM (inactive)
- GI50 (CCRF-CEM): > 100 µM (inactive)
- GI50 (NCI-H23): > 100 µM (inactive)
- GI50 (OVCAR-3): > 100 µM (inactive)
- GI50 (HOP-92): > 100 µM (inactive)
- GI50 (SNB-78): > 100 µM (inactive)
- GI50 (NCI-H460): > 100 µM (inactive)
- GI50 (MOLT-4): > 100 µM (inactive)
- GI50 (ACHN): > 100 µM (inactive)
- GI50 (TK-10): > 100 µM (inactive)
- GI50 (LXFL 529): > 100 µM (inactive)
- GI50 (K562): > 100 µM (inactive)
- GI50 (HCC 2998): > 100 µM (inactive)
- GI50 (HOP-18): > 100 µM (inactive)
- GI50 (SF-268): > 100 µM (inactive)
- GI50 (M19-MEL): > 100 µM (inactive)
- GI50 (SK-MEL-5): > 100 µM (inactive)
- GI50 (UACC-257): > 100 µM (inactive)
- GI50 (SK-MEL-2): > 100 µM (inactive)
- GI50 (SK-OV-3): 35.2 µM (inactive)
- GI50 (OVCAR-8): > 100 µM (inactive)
- GI50 (HL-60): > 100 µM (inactive)
- GI50 (SK-MEL-28): > 100 µM (inactive)
- GI50 (SR): > 100 µM (inactive)
